One may read the pKi as the negative decadic logarithm of the Ki, by convention in mol/L. Lower therefore signals a high Ki.

pKi: −log10 of the molar value. Counter-ions that a name gives are not always drawn.

The target of one assay is 5HT1D2 (Homo sapiens, UniProt P28222). Nature of the assay: Cross-reactivity binding, human 5HT1D2 receptor.
The target in assay [1] is human α2C adrenergic receptor (Homo sapiens, UniProt P18825). The assay can be described thus: Cross-reactivity binding, cloned human α2c receptor.
Another assay has as its target human Y1 receptor (Homo sapiens, UniProt P25929). The assay can be described thus: ^125I-PYY binding of compounds to human Y1 receptor, stably transfected cells.
The next assay addresses T1, human Y2 receptor (Homo sapiens, UniProt P49146).
T1 sequence (P49146 1-381): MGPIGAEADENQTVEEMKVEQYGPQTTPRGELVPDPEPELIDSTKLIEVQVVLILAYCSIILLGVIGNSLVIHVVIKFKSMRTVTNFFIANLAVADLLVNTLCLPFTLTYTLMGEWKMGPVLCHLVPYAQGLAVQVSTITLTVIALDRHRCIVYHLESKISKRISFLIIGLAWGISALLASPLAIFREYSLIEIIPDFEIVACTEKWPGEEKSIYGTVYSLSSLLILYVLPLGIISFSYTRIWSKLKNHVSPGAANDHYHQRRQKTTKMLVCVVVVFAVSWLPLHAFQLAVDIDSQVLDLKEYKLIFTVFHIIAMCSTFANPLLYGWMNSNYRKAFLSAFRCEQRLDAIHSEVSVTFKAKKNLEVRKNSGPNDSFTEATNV
The assay can be described thus: ^125I-PYY binding of compounds to human Y2 receptor, stably transfected cells.

The target of assay [2] is human α2B adrenergic receptor (Homo sapiens, UniProt P18089). The assay can be described thus: Cross-reactivity binding, cloned human α2b receptor.
The target of another assay is human 5HT1Dα receptor (Homo sapiens, UniProt P28221). Nature of the assay: Cross-reactivity binding, human 5HT1Dα receptor.
For assay [3], the target named is human α1d adrenergic receptor (Homo sapiens, UniProt P25100). The assay can be described thus: Cross-reactivity binding, cloned human α1d receptor.
Assay [4] deals with human α1a adrenergic receptor (Homo sapiens, UniProt P35348). The assay can be described thus: Cross-reactivity binding, cloned human α1a receptor.
The target in a further assay is T2, human 5HT1F receptor (Homo sapiens, UniProt P30939).
T2 sequence (P30939 1-366): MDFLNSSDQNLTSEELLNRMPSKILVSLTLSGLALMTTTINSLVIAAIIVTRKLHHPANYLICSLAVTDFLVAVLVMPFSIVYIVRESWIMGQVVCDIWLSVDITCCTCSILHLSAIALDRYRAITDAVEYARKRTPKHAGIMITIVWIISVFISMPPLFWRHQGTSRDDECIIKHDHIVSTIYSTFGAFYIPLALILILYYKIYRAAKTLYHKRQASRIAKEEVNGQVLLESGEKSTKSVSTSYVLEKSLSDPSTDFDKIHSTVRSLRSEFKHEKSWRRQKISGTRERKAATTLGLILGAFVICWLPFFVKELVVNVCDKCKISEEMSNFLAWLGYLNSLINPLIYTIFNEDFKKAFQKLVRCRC
The assay can be described thus: Cross-reactivity binding, human 5HT1F receptor.

The target of assay [5] is human α1b adrenergic receptor (Homo sapiens, UniProt P35368). The assay can be described thus: Cross-reactivity binding, cloned human α1b receptor.
A further assay has as its target human 5-HT7 receptor (Homo sapiens, UniProt P34969). The assay can be described thus: Cross-reactivity binding, human 5-HT7 receptor.
The next assay deals with human Y4 receptor (Homo sapiens, UniProt P50391). The assay can be described thus: ^125I-PYY binding of compounds to human Y4 receptor, stably transfected cells.
The next assay deals with human 5HT1E receptor (Homo sapiens, UniProt P28566). The assay can be described thus: Cross-reactivity binding, human 5HT1E receptor.
Assay [6] deals with human α2A adrenergic receptor (Homo sapiens, UniProt P08913). The assay can be described thus: Cross-reactivity binding, cloned human α2a receptor.
Chain of human α2A adrenergic receptor (P08913 whole entry): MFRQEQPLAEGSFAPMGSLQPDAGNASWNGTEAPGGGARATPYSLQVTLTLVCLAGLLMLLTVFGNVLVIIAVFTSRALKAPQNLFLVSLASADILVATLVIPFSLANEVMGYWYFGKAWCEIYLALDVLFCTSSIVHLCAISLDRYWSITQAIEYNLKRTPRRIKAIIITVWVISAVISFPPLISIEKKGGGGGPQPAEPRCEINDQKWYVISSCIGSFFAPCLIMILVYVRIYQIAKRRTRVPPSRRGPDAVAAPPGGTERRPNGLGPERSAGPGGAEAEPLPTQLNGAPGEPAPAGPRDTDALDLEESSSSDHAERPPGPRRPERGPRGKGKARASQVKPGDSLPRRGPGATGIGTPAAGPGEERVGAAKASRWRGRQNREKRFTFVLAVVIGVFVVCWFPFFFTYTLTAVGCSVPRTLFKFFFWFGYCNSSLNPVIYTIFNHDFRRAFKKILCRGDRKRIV

Chain of human 5-HT7 receptor (P34969 1-445 isoform P34969-2): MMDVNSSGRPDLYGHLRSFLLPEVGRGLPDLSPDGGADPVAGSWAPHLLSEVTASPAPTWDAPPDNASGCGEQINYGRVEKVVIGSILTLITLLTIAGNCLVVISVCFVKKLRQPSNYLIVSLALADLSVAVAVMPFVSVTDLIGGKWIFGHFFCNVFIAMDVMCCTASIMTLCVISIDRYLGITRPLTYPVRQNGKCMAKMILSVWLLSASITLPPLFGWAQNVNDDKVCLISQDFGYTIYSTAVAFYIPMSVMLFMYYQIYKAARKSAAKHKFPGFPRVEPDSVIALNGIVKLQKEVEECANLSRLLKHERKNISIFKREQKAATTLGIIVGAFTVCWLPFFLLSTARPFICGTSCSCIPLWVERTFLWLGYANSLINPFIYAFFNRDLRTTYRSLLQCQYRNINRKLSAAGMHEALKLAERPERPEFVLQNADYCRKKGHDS
Chain of human α1b adrenergic receptor (P35368 whole entry): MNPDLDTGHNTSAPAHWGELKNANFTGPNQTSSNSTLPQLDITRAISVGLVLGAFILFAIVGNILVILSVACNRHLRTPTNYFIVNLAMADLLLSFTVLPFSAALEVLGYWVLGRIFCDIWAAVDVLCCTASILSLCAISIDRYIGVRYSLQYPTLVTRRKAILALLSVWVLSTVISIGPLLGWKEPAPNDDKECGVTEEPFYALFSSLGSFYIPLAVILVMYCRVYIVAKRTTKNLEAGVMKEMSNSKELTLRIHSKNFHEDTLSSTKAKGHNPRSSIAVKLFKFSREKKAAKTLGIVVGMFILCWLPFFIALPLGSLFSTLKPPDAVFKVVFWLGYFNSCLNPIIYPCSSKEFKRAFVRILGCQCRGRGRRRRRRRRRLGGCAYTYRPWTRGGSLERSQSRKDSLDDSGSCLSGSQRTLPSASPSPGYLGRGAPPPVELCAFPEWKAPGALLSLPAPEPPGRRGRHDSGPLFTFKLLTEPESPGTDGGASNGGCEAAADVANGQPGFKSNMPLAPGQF
Chain of human Y4 receptor (P50391 whole entry): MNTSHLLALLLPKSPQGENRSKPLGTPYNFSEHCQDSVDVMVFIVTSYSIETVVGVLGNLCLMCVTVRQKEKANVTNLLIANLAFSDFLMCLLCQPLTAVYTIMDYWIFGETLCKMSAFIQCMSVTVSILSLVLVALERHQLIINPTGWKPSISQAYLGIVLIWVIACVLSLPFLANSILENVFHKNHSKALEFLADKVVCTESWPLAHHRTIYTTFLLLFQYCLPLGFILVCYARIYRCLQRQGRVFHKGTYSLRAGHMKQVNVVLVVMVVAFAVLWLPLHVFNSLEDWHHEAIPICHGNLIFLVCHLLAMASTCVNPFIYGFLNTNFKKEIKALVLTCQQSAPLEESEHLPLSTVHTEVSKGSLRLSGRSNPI
Chain of human α2B adrenergic receptor (P18089 whole entry): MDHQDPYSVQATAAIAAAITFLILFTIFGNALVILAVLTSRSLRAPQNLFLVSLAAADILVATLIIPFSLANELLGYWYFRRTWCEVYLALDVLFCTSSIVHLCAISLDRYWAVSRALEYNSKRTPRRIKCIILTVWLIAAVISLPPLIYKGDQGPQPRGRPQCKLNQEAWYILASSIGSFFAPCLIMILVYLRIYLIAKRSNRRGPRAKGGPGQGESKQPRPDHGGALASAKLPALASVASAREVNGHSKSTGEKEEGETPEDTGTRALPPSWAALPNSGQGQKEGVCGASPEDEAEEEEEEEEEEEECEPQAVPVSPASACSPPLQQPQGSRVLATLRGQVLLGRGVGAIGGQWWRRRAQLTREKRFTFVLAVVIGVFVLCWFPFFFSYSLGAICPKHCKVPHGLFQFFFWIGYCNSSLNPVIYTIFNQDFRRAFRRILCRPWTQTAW
Chain of 5HT1D2 (P28222 whole entry): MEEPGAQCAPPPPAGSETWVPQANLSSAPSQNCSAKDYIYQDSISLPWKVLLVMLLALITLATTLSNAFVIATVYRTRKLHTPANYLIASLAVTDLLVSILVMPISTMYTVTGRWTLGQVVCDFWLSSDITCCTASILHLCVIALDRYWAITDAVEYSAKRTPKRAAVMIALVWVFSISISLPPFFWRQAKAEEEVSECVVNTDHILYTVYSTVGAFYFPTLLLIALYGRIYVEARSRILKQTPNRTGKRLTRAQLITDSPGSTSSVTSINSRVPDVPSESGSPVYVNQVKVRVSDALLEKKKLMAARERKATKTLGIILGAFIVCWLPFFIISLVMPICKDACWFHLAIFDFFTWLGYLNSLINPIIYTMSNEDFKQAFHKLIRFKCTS
Chain of human α1a adrenergic receptor (P35348 whole entry): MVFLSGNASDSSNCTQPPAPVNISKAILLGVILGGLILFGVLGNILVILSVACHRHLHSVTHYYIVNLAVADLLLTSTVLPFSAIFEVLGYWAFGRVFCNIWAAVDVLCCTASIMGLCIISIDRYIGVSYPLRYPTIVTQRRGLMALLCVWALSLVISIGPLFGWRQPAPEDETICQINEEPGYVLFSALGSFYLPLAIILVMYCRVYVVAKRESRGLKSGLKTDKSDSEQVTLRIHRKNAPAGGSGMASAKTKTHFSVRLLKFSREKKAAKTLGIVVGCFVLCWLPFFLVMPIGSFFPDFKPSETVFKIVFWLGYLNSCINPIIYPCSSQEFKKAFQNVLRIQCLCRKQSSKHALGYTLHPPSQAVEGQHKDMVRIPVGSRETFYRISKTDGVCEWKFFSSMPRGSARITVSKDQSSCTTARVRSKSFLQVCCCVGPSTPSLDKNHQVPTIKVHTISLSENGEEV
Chain of human 5HT1Dα receptor (P28221 whole entry): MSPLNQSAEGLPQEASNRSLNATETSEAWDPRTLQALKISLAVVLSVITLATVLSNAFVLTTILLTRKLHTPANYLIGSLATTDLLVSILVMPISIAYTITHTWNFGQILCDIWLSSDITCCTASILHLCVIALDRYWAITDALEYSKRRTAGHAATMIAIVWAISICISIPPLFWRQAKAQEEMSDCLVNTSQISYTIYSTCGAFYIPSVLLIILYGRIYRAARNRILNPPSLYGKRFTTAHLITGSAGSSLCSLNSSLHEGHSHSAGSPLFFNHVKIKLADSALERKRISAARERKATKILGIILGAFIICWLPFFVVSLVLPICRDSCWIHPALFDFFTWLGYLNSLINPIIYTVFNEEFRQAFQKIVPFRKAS
Chain of human 5HT1E receptor (P28566 whole entry): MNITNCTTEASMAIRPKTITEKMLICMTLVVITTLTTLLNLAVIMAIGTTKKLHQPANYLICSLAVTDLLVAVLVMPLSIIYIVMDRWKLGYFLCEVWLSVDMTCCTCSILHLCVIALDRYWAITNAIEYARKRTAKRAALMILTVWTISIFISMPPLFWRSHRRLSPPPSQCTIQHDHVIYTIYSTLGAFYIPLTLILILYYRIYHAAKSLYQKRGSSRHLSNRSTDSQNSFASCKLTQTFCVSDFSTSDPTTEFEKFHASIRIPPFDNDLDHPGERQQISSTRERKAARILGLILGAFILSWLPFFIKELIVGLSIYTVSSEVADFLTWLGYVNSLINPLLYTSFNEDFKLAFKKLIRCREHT
Chain of human Y1 receptor (P25929 whole entry): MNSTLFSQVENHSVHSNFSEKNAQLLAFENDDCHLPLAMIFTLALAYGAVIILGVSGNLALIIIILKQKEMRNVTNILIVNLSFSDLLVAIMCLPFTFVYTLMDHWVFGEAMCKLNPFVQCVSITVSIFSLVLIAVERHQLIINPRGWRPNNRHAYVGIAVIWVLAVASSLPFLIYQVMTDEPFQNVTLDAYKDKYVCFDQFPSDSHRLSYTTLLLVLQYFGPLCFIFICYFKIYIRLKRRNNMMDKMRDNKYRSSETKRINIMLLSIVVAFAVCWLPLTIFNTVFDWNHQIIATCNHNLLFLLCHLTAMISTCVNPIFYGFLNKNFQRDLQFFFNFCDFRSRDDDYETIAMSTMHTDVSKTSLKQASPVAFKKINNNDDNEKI
Chain of human α1d adrenergic receptor (P25100 whole entry): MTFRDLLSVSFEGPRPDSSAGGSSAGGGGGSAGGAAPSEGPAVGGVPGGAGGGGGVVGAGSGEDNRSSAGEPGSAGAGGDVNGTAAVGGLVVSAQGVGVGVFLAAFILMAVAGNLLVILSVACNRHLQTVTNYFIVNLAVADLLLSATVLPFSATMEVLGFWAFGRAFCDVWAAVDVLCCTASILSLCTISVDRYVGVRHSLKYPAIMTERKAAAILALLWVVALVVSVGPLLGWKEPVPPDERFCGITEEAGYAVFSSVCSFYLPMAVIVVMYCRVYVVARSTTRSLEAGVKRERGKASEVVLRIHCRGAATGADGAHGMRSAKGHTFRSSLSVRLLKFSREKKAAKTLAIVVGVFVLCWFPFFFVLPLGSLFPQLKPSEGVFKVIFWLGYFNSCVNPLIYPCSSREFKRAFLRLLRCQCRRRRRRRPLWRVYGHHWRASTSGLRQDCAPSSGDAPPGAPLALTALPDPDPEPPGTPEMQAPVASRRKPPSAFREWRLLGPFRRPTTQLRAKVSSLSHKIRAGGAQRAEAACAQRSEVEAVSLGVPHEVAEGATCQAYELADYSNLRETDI
Description for human Y1 receptor: (§1) To prepare membranes from baculovirus infected cells, 2×10^7 Sf21 cells were grown in 150 mm tissue culture dishes and infected with a high-titer stock of hY5BB3.
Description for human Y2 receptor: as §1
Description for human Y4 receptor: as §1

Turning to `CC(=O)O[C@H]1CC[C@H](Nc2nc(Nc3ccccc3)c3ccccc3n2)CC1` [Compound 7, trans-2-(4-Acetoxy-cyclohexylamino)-4-phenylamino-quinazoline Hydrochloride], the pKi was 5.30 at 5HT1D2; 6.85 in assay [1]; 5.66 at human Y1 receptor; 5.54 on human Y2 receptor; 6.09 in assay [2]; 5.85 at human 5HT1Dα receptor. Also, the pKi in assay [3] is 6.46; in [4] it was 6.06; at human 5HT1F receptor it was 5.30; in [5], 6.08; on human 5-HT7 receptor, 6.64; on human Y4 receptor, 5.15. Further, the pKi at human 5HT1E receptor was 5.30; in assay [6], 7.16.

(Values after patent US6645774B1 (Synaptic Pharmaceutical Corporation, priority 1994, dated 2003).)
